# Reference: PMC9388626, “STUB1 is an intracellular checkpoint for interferon gamma sensing” (Scientific Reports, 2022)
# Legend:
# MCF7 cells [1] = experiment: Growth inhibition, CellTiter-Fluor (live-cell protease activity); assay type: cell-based, human; parameters: scale not given here; conditions: 10 ng ml-1 each, 6-day
# Procedure: (§1) Parental and CRISPR-edited tumour cells were seeded in a cell density of 1800 (DU145), 2000 (PC-3), or 10,000 (MCF7) per well in 96-well CellCarrier plate (PelkinElmer, #6005550) filled with 50 µl culture media + 10% FBS. After 20–24 h incubation, the cells were treated with 10 ng ml^−1 of recombinant human IFNγ (R&D Systems, 285-IF-100), 10 ng ml^−1 of recombinant human TNFα (R&D Systems, 210-TA-020/CF) or a combination of both, by adding an equal volume of the complete culture media containing the cytokines. After incubating for 6 days without media change, the CellTiter-Glo 2.0 (Promega, G9243) or CellTiter-Fluor (Promega, G6082) assay were performed according to manufacturer’ instructions. The luminescence or fluorescence (Ex: 380–400 nm, Em: 505 nm) were detected by Inifinte M1000 PRO (Tecan). For CellTiter-Fluor, triplicate wells without cells were included to determine background fluorescence and the signal average was used for background substraction.
# PC-3 cells = experiment: as above; assay type: cell-based, human; parameters: scale not given here; conditions: 10 ng ml-1 each, 6-day
# Procedure: as §1
# DU145 cells = experiment: as above; assay type: cell-based, human; parameters: scale not given here; conditions: 10 ng ml-1 each, 6-day
# Procedure: as §1
# MCF7 cells [2] = experiment: Growth inhibition, CellTiter-Glo 2.0 (ATP); assay type: cell-based, human; conditions: MCF7, 10 ng ml^−1, 6 days
# Procedure: as §1
# A549 cells [3] = experiment: Flow cytometry, surface MHC-I, mCherry2-peptide stable cells; assay type: cell-based; conditions: A549, stable expression; human IFNγ 0.01 ng ml^−1, 24 h
# Text: (§2) To generate the plasmids, gBlocks gene fragments (IDT) encoding the inhibitory biologic (FLAG-mCherry2-GGSGGS-SIWWPD) and the control biologic (FLAG-mCherry2-GGSGGS-SIWWHR) were cloned into pEF6 vector (Thermo Fisher Scientific) by standard restriction enzyme digestion and T4 DNA ligation. The final constructs were verified by Sanger sequencing. Coding sequences of the constructs are provided in Supplementary Table S5. To generate the stable cell lines, a total of 2 × 10^5 B16-F10, A375 or A549 cells were electroporated with 200 ng plasmid using DJ-110, FF-120 or CM-130 respectively—the preset programmed in 4D-nucleofector system (Lonza). The preparation of the cell suspension and the process of the electroporation are similar to that described in the CRISPR method section. The stable cell lines were selected using 10 µg ml^−1 blasticidin three days post-electroporation and were maintained in 5 µg ml^−1 blasticidin once the stable colonies were established. […]
# (§3) Cells were dissociated from the wells with 0.25% trypsin (Gibco, 25200056). […] Cells were analyzed on LSRFortessa X-20 (BD Biosciences) with appropiate fluorescence compensation. The data were analyzed using FlowJo. […]
# A375 cells [4] = experiment: as above; assay type: cell-based; conditions: A375, stable expression; human IFNγ 0.01 ng ml^−1, 24 h
# Text: as §2, §3
# B16-F10 cells = experiment: Flow cytometry, surface IFNGR1, mCherry2-peptide stable cells; assay type: cell-based, murine; conditions: stable expression; resting and IFNγ-stimulated (mouse IFNγ 0.03 ng ml^−1, 24 h)
# Text: as §2, §3
# A549 cells [5] = experiment: as above; assay type: cell-based; conditions: A549, stable expression; untreated or human IFNγ 0.01 ng ml^−1, 24 h
# Text: as §2, §3
# A375 cells [6] = experiment: as above; assay type: cell-based; conditions: A375, stable expression; untreated or human IFNγ 0.01 ng ml^−1, 24 h
# Text: as §2, §3
# STUB1 = experiment: Co-immunoprecipitation of FLAG-mCherry2-peptide and STUB1; assay type: binding, murine; conditions: B16-F10 lysate, anti-FLAG
# Procedure: B16-F10 cells stably expressing the biologic were harvested, rinsed with PBS, and lysed with chilled cell lysis buffer (Cell Signaling Technology, #9803) supplemented with Halt protease inhibitor cocktail (Life Technologies, #78430) and phosphatase inhibitor (Sigma-Aldrich, # 4906837001). Cellular lysates were clarified by centrifugation at 15,000 rpm at 4 °C for 15 min. Protein concentration was determined using BCA protein assay kit (Pierce, #23225). For each sample of the co-immunoprecipitation (co-IP), 20 µl of anti-FLAG magnetic beads (Sigma-Aldrich, M8823) was rinsed twice with 0.2 ml PBS, followed by addition of 500 µl diluted cellular lysate (60 µg, 0.12 µg µl^−1). For competitive inhibition, synthetic peptide (SIWWPD) was added into the co-IP mixture. The resulting mixture was rotated at room temperature for 4 h, after which the beads were rinsed with 3 × 0.5 ml PBS to remove the unbound proteins. Bound protein complexes were directly eluted with a 20 µl solution of LDS sample buffer (Life Technologies, NP0008) supplemented with sample reducing agent (Life Technologies, NP0009), followed by heating at 70 °C for 10 min. […] Blotting was similar to the Western Blot section described above. Primary antibodies used were: STUB1/CHIP (Cell Signaling Technology, #2080, 1:1000 dilution), FLAG (Sigma-Aldrich, F1804, 1:1000 dilution). […]
substance,measurement,setting,value
TNFα,FC in live-cell protease activity relative to parental cells,"MCF7 cells [1]; MCF7 PTPN2 sgRNA, replicate 1",-0.29
same,FC in live-cell protease activity relative to parental cells,"MCF7 cells [1]; MCF7 PTPN2 sgRNA, replicate 2",-0.31
same,FC in live-cell protease activity relative to parental cells,"MCF7 cells [1]; MCF7 PTPN2 sgRNA, replicate 3",-0.32
same,FC in live-cell protease activity relative to parental cells,"MCF7 cells [1]; MCF7 Parental, replicate 1",0.00519
same,FC in live-cell protease activity relative to parental cells,"MCF7 cells [1]; MCF7 Parental, replicate 2",-0.01
same,FC in live-cell protease activity relative to parental cells,"MCF7 cells [1]; MCF7 Parental, replicate 3",0.00479
same,FC in live-cell protease activity relative to parental cells,"MCF7 cells [1]; MCF7 STUB1 sgRNA, replicate 1",-0.18
same,FC in live-cell protease activity relative to parental cells,"MCF7 cells [1]; MCF7 STUB1 sgRNA, replicate 2",-0.39
same,FC in live-cell protease activity relative to parental cells,"MCF7 cells [1]; MCF7 STUB1 sgRNA, replicate 3",-0.36
same,FC in live-cell protease activity relative to parental cells,"MCF7 cells [1]; MCF7 control sgRNA, replicate 1",-0.14
same,FC in live-cell protease activity relative to parental cells,"MCF7 cells [1]; MCF7 control sgRNA, replicate 2",-0.16
same,FC in live-cell protease activity relative to parental cells,"MCF7 cells [1]; MCF7 control sgRNA, replicate 3",-0.18
same,FC in live-cell protease activity relative to parental cells,"PC-3 cells; PC-3 PTPN2 sgRNA, replicate 1",0.08
same,FC in live-cell protease activity relative to parental cells,"PC-3 cells; PC-3 PTPN2 sgRNA, replicate 2",-0.06
same,FC in live-cell protease activity relative to parental cells,"PC-3 cells; PC-3 PTPN2 sgRNA, replicate 3",0.13
same,FC in live-cell protease activity relative to parental cells,"PC-3 cells; PC-3 Parental, replicate 1",0.11
same,FC in live-cell protease activity relative to parental cells,"PC-3 cells; PC-3 Parental, replicate 2",-0.05
same,FC in live-cell protease activity relative to parental cells,"PC-3 cells; PC-3 Parental, replicate 3",-0.07
same,FC in live-cell protease activity relative to parental cells,"PC-3 cells; PC-3 STUB1 sgRNA, replicate 1",0.20
same,FC in live-cell protease activity relative to parental cells,"PC-3 cells; PC-3 STUB1 sgRNA, replicate 2",0.00375
same,FC in live-cell protease activity relative to parental cells,"PC-3 cells; PC-3 STUB1 sgRNA, replicate 3",-0.0246
same,FC in live-cell protease activity relative to parental cells,"PC-3 cells; PC-3 control sgRNA, replicate 1",0.19
same,FC in live-cell protease activity relative to parental cells,"PC-3 cells; PC-3 control sgRNA, replicate 2",0.026
same,FC in live-cell protease activity relative to parental cells,"PC-3 cells; PC-3 control sgRNA, replicate 3",-0.06
same,FC in live-cell protease activity relative to parental cells,"DU145 cells; DU145 PTPN2 sgRNA, replicate 1",0.07
same,FC in live-cell protease activity relative to parental cells,"DU145 cells; DU145 PTPN2 sgRNA, replicate 2",0.13
same,FC in live-cell protease activity relative to parental cells,"DU145 cells; DU145 PTPN2 sgRNA, replicate 3",-0.00707
same,FC in live-cell protease activity relative to parental cells,"DU145 cells; DU145 Parental, replicate 1",-0.0322
same,FC in live-cell protease activity relative to parental cells,"DU145 cells; DU145 Parental, replicate 2",0.08
same,FC in live-cell protease activity relative to parental cells,"DU145 cells; DU145 Parental, replicate 3",-0.05
same,FC in live-cell protease activity relative to parental cells,"DU145 cells; DU145 STUB1 sgRNA, replicate 1",0.0056
same,FC in live-cell protease activity relative to parental cells,"DU145 cells; DU145 STUB1 sgRNA, replicate 2",0.0106
same,FC in live-cell protease activity relative to parental cells,"DU145 cells; DU145 STUB1 sgRNA, replicate 3",0.16
same,FC in live-cell protease activity relative to parental cells,"DU145 cells; DU145 control sgRNA, replicate 1",-0.0256
same,FC in live-cell protease activity relative to parental cells,"DU145 cells; DU145 control sgRNA, replicate 2",-0.00666
same,FC in live-cell protease activity relative to parental cells,"DU145 cells; DU145 control sgRNA, replicate 3",-0.0248
same,Growth inhibition of PTPN2- or STUB1-null cells,MCF7 cells [2],could sensitize MCF7 breast tumour cell
mCherry2-SIWWPD,Cell surface MHC-I,A549 cells [3],boost the surface levels of MHC-I in response to IFNγ
same,Cell surface MHC-I,A375 cells [4],boost the surface levels of MHC-I in response to IFNγ
same,Cell surface IFNGR1,B16-F10 cells,"upregulation of IFNGR1 on the cell surface of B16-F10, under both resting and IFNγ-stimulating conditions"
same,Cell surface IFNGR1,A549 cells [5],also resulted in the same phenotype
same,Cell surface IFNGR1,A375 cells [6],also resulted in the same phenotype
same,Co-precipitation of STUB1,STUB1,STUB1 was co-precipitated
